{"source": "patent US12661348B2", "about": "“Systemic formulation of a pyridinone derivate for TG2-related diseases” (Dr. Falk Pharma GmbH, priority 2020, dated 2026)", "key": {"[1]": {"tested_on": "UUO-model in the C57BL/6-mouse", "assay": "Unilateral ureteral obstruction model (UUO-model) for nephritic fibrosis", "type": "in vivo", "details": "100, 300, 1000 mg/kg body weight daily, oral suspension, two weeks", "text": "The anti-fibrotic effect of (S,E)-methyl-7-(1-(2-(2-ethylbutylamino)-2-oxoethyl)-2-oxo-1,2-dihydro-pyridin-3-ylamino)-6-(1-methyl-1H-imidazole-5-carboxamido)-7-oxohept-2-enoate (compound of formula (I)) in the kidney was investigated in an UUO-model in the C57BL/6-mouse. In a UUO-model, in one of the kidneys fibrosis is induced by ligation of one ureter. The other kidney remains functional. The pathophysiology of the UUO-model resembles the chronic nephropathy in humane (Chronic Kidney Disease, CKD).\nGroups of 8 UUO-mice were treated directly after ligation of the ureter over a time period of two weeks with three different dosages of said compound: 100 mg/kg body weight, 300 mg/kg body weight, and 1000 mg/kg body weight. The daily dosage was administered orally as a suspension at intervals of 8 hours. In a control group, the UUO-mice were treated in same way but merely with the vehicle methyl cellulose. After the end of the treatment, the histopathological investigation of the kidney tissue as well as the determination of the amount of hydroxyproline in the kidney was performed. […]"}, "[2]": {"biological_target": "T1, TG2 (Mus musculus, UniProt P21981)", "T1 construct": "The immune-histochemical localisation of the complex of compound of formula (I) and TG2 in the kidney tissue; from tissue; host or cells: kidney tissue of UUO C57BL/6 mice", "T1 sequence (P21981 1-686)": "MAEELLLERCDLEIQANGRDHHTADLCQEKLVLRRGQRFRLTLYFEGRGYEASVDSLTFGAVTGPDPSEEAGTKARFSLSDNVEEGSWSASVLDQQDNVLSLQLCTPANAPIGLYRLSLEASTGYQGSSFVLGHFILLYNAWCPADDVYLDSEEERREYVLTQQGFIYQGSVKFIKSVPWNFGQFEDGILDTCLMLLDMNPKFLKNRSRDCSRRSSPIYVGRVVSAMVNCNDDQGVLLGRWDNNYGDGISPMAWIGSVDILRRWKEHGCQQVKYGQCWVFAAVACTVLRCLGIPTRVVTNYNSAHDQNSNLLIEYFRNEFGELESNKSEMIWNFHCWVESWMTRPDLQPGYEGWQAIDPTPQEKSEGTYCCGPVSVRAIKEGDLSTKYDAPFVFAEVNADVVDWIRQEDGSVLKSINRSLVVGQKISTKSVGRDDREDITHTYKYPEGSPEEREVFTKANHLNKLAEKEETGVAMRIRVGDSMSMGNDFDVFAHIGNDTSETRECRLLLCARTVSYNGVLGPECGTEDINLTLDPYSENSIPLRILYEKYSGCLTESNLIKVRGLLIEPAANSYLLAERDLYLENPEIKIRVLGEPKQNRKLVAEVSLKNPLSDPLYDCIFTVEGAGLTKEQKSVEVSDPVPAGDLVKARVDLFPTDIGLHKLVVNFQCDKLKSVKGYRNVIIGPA", "assay": "Immune-histochemical localisation of the complex of compound and TG2 in kidney tissue of UUO-mice", "type": "in vivo, C57BL/6-mouse", "details": "oral, different dosages, compound-specific antibody", "procedure": "Groups of 8 UUO-mice were treated directly after ligation of the ureter over a time period of two weeks with three different dosages of said compound: 100 mg/kg body weight, 300 mg/kg body weight, and 1000 mg/kg body weight. The daily dosage was administered orally as a suspension at intervals of 8 hours. In a control group, the UUO-mice were treated in same way but merely with the vehicle methyl cellulose. After the end of the treatment, the histopathological investigation of the kidney tissue as well as the determination of the amount of hydroxyproline in the kidney was performed. Furthermore, an immune-histochemical localisation of the complex of (S,E)-methyl-7-(1-(2-(2-ethylbutylamino)-2-oxoethyl)-2-oxo-1,2-dihydro-pyridin-3-ylamino)-6-(1-methyl-1H-imidazole-5-carboxamido)-7-oxohept-2-enoate and TG2 by means of (S,E)-methyl-7-(1-(2-(2-ethylbutylamino)-2-oxoethyl)-2-oxo-1,2-dihydro-pyridin-3-ylamino)-6-(1-methyl-1H-imidazole-5-carboxamido)-7-oxohept-2-enoate-specific antibody was carried out."}, "[3]": {"tested_on": "STAM-model and UUO-model", "assay": "Dose-activity-relationship in STAM-model and UUO-model", "type": "in vivo, C57BL/6-mouse", "text": "The reduction of the fibrotic area in the tissue in comparison to the untreated control animals can be considered as a measure for the anti-fibrotic effect of compound of formula (I) in STAM-model as well as in the UUO-model. For the STAM- and UUO-model the anti-fibrotic effect in dependence of the dose or in dependence of the exposure (Plasma Cmax or Plasma-AUC) are depicted in FIG. 5."}}, "data": [{"smiles": "CCC(CC)CNC(=O)Cn1cccc(NC(=O)[C@H](CC/C=C/C(=O)OC)NC(=O)c2cncn2C)c1=O", "note": "[compound of formula (I), (S,E)-methyl-7-(1-(2-(2-ethylbutylamino)-2-oxoethyl)-2-oxo-1,2-dihydro-pyridin-3-ylamino)-6-(1-methyl-1H-imidazole-5-carboxamido)-7-oxohept-2-enoate]", "values": [{"measurement": "hydroxyproline content in the kidney", "setting": "[1]", "value": "remained unaffected"}, {"measurement": "fibrotic area of the kidney", "setting": "[1]; versus vehicle control", "value": "significant, marked, dosage dependent reduction"}, {"measurement": "immune-histochemical localisation of the complex of compound and TG2 in the kidney tissue", "setting": "[2]", "value": "reach the target site and inhibits the target molecule"}, {"measurement": "anti-fibrotic effect in dependence of the exposure in plasma", "setting": "[3]; Plasma Cmax or Plasma-AUC", "value": "almost linear correlation"}, {"measurement": "anti-fibrotic effect in STAM-model versus UUO-model", "setting": "[3]; reduction of the fibrotic area versus control, liver and kidney", "value": "the same anti-fibrotic effect"}]}]}
